Data from patent publication US8680159B2, “Bradykinin 1 receptor modulating compounds” (Gruenenthal GmbH, priority 2010, dated 2014).

Tests used:
[1] = target: T1, B1R receptor of the rat (CHO K1 cells stably transfected with the B1R gene of the rat) (Rattus norvegicus, UniProt P97583); assay: Functional study on the bradykinin receptor 1 (B1R), Ca2+ fluorescence (Fluo-4) FLIPR/Novostar assay, rB1R cells; type: cell-based; settings: for inhibition at 10 µM: CHO-K1, 10 μM, read-out: % Inhibition (r-B1R) at 10 μM
T1 construct: expressed in transfected cells; host or cells: CHO K1 cells (Chinese hamster ovary), stably transfected
T1 sequence (P97583 1-337): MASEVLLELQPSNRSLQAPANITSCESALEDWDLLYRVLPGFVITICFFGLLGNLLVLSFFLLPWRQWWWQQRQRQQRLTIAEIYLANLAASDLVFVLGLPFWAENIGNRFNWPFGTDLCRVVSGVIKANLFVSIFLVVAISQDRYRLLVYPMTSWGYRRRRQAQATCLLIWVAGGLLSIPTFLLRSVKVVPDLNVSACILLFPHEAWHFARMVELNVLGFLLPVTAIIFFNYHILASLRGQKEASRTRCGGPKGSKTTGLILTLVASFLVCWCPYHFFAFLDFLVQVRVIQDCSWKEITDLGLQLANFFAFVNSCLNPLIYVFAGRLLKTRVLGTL
In short: (§1)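 Test compounds (10 μM) were added first and the Ca2+ rise was scored as % activation against Lys-Des-Arg9-bradykinin (≥50 nM, human) or Des-Arg9-bradykinin (≥1 μM, rat). After 6-20 min, the matching agonist was given at its EC80, and % inhibition relative to maximal achievable inhibition was calculated.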

[2] = target: T2, human B1R receptor (CHO K1 cells stably transfected with the human B1R gene) (Homo sapiens, UniProt P46663); assay: Functional study on the bradykinin receptor 1 (B1R), Ca2+ fluorescence (Fluo-4) FLIPR/Novostar assay, hB1R cells; type: cell-based; settings: CHO-K1, read-out: % Inhibition (h-B1R) at 10 μM
T2 construct: expressed in transfected cells; host or cells: CHO K1 cells (Chinese hamster ovary), stably transfected
T2 sequence (P46663 1-353): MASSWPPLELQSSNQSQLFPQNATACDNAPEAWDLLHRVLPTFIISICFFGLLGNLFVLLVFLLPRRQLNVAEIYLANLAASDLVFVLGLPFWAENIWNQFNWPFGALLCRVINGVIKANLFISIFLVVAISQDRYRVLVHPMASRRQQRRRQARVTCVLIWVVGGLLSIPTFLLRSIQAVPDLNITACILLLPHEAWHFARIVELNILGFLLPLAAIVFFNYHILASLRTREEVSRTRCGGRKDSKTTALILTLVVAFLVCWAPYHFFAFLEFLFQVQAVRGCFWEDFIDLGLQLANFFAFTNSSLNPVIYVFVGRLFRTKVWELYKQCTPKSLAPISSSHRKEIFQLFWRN
In short: as §1

SMILES	inhibition at 10 µM [1] [%]	inhibition at 10 µM [2] [%]	% Inhibition (r-B1R) at 10 μM [1] [%]
CN(C(=O)c1ccc2c(c1)C(NC(=O)c1ccccc1Cl)CC2(C)C)C1CCN(c2ccncc2)CC1 (stereo not shown) [CC_H-23, 3-[(2-Chloro-benzoyl)amino]-N,1,1-trimethyl-N-(1-pyridin-4-yl-piperidin-4-yl)-2,3-dihydro-indene-5-carboxylic acid amide]	104	99	
CN(C(=O)c1ccc2c(c1)C(NC(=O)c1ccccc1Cl)CC2)C1CCN(c2ccncc2)CC1 (stereo not shown) [CC_H-24, 3-[(2-Chloro-benzoyl)amino]-N-methyl-N-(1-pyridin-4-yl-piperidin-4-yl)-2,3-dihydro-1H-indene-5-carboxylic acid amide]	105	100	
CN(C(=O)c1ccc2c(c1)C(N(C)C(=O)c1cccc(Cl)c1Cl)CC2)C1CCN(c2ccncc2)CC1 (stereo not shown) [CC_H-25, 3-[(2,3-Dichloro-benzoyl)-methyl-amino]-N-methyl-N-(1-pyridin-4-yl-piperidin-4-yl)-2,3-dihydro-1H-indene-5-carboxylic acid amide]	104	98	
CN(C(=O)c1ccc2c(c1)C(NC(=O)c1cc(F)ccc1Cl)CC2)C1CCN(c2ccncc2)CC1 (stereo not shown) [CC_H-26, 3-[(2-Chloro-5-fluoro-benzoyl)amino]-N-methyl-N-(1-pyridin-4-yl-piperidin-4-yl)-2,3-dihydro-1H-indene-5-carboxylic acid amide]		100	103
CN(C(=O)c1ccc2c(c1)C(N(C)C(=O)c1cc(F)ccc1Cl)CC2)C1CCN(c2ccncc2)CC1 (stereo not shown) [CC_H-27, 3-[(2-Chloro-5-fluoro-benzoyl)-methyl-amino]-N-methyl-N-(1-pyridin-4-yl-piperidin-4-yl)-2,3-dihydro-1H-indene-5-carboxylic acid amide]		100	104
CC(C)CC(=O)N(C)C1CCc2ccc(C(=O)N(C)C3CCN(c4ccncc4)CC3)cc21 (stereo not shown) [CC_H-28, N-Methyl-3-[methyl-(3-methyl-butanoyl)-amino]-N-(1-pyridin-4-yl-piperidin-4-yl)-2,3-dihydro-1H-indene-5-carboxylic acid amide]	103	99	
CN(C(=O)c1ccc2c(c1)C(NC(=O)c1sccc1Cl)CC2)C1CCN(c2ccncc2)CC1 (stereo not shown) [CC_H-29, 3-Chloro-N-[6-[methyl-(1-pyridin-4-yl-piperidin-4-yl)-carbamoyl]-2,3-dihydro-1H-inden-1-yl]-thiophene-2-carboxylic acid amide]	103	99	
CN(C(=O)c1ccc2c(c1)C(N(C)C(=O)c1sccc1Cl)CC2)C1CCN(c2ccncc2)CC1 (stereo not shown) [CC_H-30, 3-Chloro-N-methyl-N-[6-[methyl-(1-pyridin-4-yl-piperidin-4-yl)-carbamoyl]-2,3-dihydro-1H-inden-1-yl]-thiophene-2-carboxylic acid amide]	104	99	
CN(C(=O)c1ccc2c(c1)C(N(C)C(=O)c1cnccc1C(F)(F)F)CC2)C1CCN(c2ccncc2)CC1 (stereo not shown) [CC_H-32, N-Methyl-N-[6-[methyl-(1-pyridin-4-yl-piperidin-4-yl)-carbamoyl]-2,3-dihydro-1H-inden-1-yl]-4-(trifluoromethyl)-pyridine-3-carboxylic acid amide]	105	97	
CN(C(=O)c1ccc2c(c1)C(NC(=O)c1ccccc1Cl)CCO2)C1CCN(c2ccncc2)CC1 (stereo not shown) [CC_H-33, 4-[(2-Chloro-benzoyl)amino]-N-methyl-N-(1-pyridin-4-yl-piperidin-4-yl)-3,4-dihydro-2H-chromene-6-carboxylic acid amide]	104	98	
O=C(NCCC1CCN(c2ccncc2)CC1)c1ccc2c(c1)C(NC(=O)c1ccccc1Cl)CC2 (stereo not shown) [CC_H-34, 3-[(2-Chloro-benzoyl)amino]-N-[2-(1-pyridin-4-yl-piperidin-4-yl)-ethyl]-2,3-dihydro-1H-indene-5-carboxylic acid amide]	104	99	
CN(C(=O)c1ccc2c(c1)C(NC(=O)c1cccc(Cl)c1Cl)CCO2)C1CCN(c2ccncc2)CC1 (stereo not shown) [CC_H-35, 4-[(2,3-Dichloro-benzoyl)amino]-N-methyl-N-[1-pyridin-4-yl-piperidin-4-yl]-3,4-dihydro-2H-chromene-6-carboxylic acid amide]	104	97	
O=C(NCCC1CCN(c2ccncc2)CC1)c1ccc2c(c1)C(NC(=O)c1cc(F)ccc1Cl)CC2 (stereo not shown) [CC_H-36, 3-[(2-Chloro-5-fluoro-benzoyl)amino]-N-[2-(1-pyridin-4-yl-piperidin-4-yl)-ethyl]-2,3-dihydro-1H-indene-5-carboxylic acid amide]	104	99	
O=C(NCCC1CCN(c2ccncc2)CC1)c1ccc2c(c1)C(NC(=O)c1cnccc1C(F)(F)F)CC2 (stereo not shown) [CC_H-37, N-[6-[2-(1-Pyridin-4-yl-piperidin-4-yl)-ethyl-carbamoyl]-2,3-dihydro-1H-inden-1-yl]-4-(trifluoromethyl)-pyridine-3-carboxylic acid amide]	104	93	
CN(C(=O)c1ccc2c(c1)C(NC(=O)C1CCCCC1)CCO2)C1CCN(c2ccncc2)CC1 (stereo not shown) [CC_H-38, 4-(Cyclohexanecarbonylamino)-N-methyl-N-(1-pyridin-4-yl-piperidin-4-yl)-3,4-dihydro-2H-chromene-6-carboxylic acid amide]	104	99	
CC(C)CC(=O)NC1CCOc2ccc(C(=O)N(C)C3CCN(c4ccncc4)CC3)cc21 (stereo not shown) [CC_H-39, N-Methyl-4-(3-methyl-butanoylamino)-N-(1-pyridin-4-yl-piperidin-4-yl)-3,4-dihydro-2H-chromene-6-carboxylic acid amide]		99	104
CN(C(=O)c1ccc2c(c1)C(NC(=O)c1sccc1Cl)CCO2)C1CCN(c2ccncc2)CC1 (stereo not shown) [CC_H-40, 4-[(3-Chloro-thiophene-2-carbonyl)amino]-N-methyl-N-(1-pyridin-4-yl-piperidin-4-yl)-3,4-dihydro-2H-chromene-6-carboxylic acid amide]	100	95	
CC(C)CC(=O)NC1CCc2ccc(C(=O)N(C)C3CCN(c4ccncc4)CC3)cc21 (stereo not shown) [CC_H-41, N-Methyl-3-(3-methyl-butanoylamino)-N-(1-pyridin-4-yl-piperidin-4-yl)-2,3-dihydro-1H-indene-5-carboxylic acid amide]	104	100	
CN(C(=O)c1ccc2c(c1)C(NC(=O)c1cnccc1C(F)(F)F)CCO2)C1CCN(c2ccncc2)CC1 (stereo not shown) [CC_H-42, N-[6-[Methyl-(1-pyridin-4-yl-piperidin-4-yl)-carbamoyl]-3,4-dihydro-2H-chromen-4-yl]-4-(trifluoromethyl)-pyridine-3-carboxylic acid amide]	104	99	
CC(C)CC(=O)NC1CC(C)(C)c2ccc(C(=O)N(C)C3CCN(c4ccncc4)CC3)cc21 (stereo not shown) [CC_H-43, N,1,1-Trimethyl-3-(3-methyl-butanoylamino)-N-(1-pyridin-4-yl-piperidin-4-yl)-2,3-dihydro-indene-5-carboxylic acid amide]	105	100	
CN(C(=O)NC1CCc2ccc(C(=O)N(C)C3CCN(c4ccncc4)CC3)cc21)c1ccccc1Cl (stereo not shown) [CC_H-44, 3-[[(2-Chlorophenyl)-methyl-carbamoyl]amino]-N-methyl-N-(1-pyridin-4-yl-piperidin-4-yl)-2,3-dihydro-1H-indene-5-carboxylic acid amide]	104	100	
CN(C(=O)c1ccc2c(c1)C(N(C)C(=O)c1cncnc1)CC2)C1CCN(c2ccncc2)CC1 (stereo not shown) [CC_H-45, N-Methyl-N-[6-[methyl-(1-pyridin-4-yl-piperidin-4-yl)-carbamoyl]-2,3-dihydro-1H-inden-1-yl]-pyrimidine-5-carboxylic acid amide]	88	96	
CN(C(=O)c1ccc2c(c1)C(N(C)S(=O)(=O)Cc1ccccc1C(F)(F)F)CC2)C1CCN(c2ccncc2)CC1 (stereo not shown) [CC_H-46, N-Methyl-3-[methyl-[[2-(trifluoromethyl)-phenyl]-methylsulfonyl]-amino]-N-(1-pyridin-4-yl-piperidin-4-yl)-2,3-dihydro-1H-indene-5-carboxylic acid amide]	104	99	
